Experimental findings from ChEMBL document CHEMBL4425117 (Bioorg Med Chem Lett, 2016) are described below.

Series [1] concerns the target T1, Endothelin receptor type B (Sus scrofa, UniProt P35463).
T1 sequence (P35463 whole entry): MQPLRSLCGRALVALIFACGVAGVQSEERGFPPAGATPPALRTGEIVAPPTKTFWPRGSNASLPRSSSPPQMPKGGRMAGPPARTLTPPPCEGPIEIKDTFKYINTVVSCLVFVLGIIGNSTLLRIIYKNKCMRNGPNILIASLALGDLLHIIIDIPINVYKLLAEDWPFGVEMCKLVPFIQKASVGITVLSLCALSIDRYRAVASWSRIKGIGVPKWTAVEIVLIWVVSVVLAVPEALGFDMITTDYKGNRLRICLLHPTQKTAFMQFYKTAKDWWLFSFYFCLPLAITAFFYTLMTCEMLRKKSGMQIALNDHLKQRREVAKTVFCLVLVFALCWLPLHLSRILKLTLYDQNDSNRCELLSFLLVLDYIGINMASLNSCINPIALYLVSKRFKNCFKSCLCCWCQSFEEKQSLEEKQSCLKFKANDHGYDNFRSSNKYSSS
The series can be described thus: Displacement of 125I-ET1 from pig ETB receptor transfected in grivet COS7 cells. The class given is cell-based.

For series [2], the target named is T2, Endothelin receptor type B (Rattus norvegicus, UniProt P21451).
T2 sequence (P21451 whole entry): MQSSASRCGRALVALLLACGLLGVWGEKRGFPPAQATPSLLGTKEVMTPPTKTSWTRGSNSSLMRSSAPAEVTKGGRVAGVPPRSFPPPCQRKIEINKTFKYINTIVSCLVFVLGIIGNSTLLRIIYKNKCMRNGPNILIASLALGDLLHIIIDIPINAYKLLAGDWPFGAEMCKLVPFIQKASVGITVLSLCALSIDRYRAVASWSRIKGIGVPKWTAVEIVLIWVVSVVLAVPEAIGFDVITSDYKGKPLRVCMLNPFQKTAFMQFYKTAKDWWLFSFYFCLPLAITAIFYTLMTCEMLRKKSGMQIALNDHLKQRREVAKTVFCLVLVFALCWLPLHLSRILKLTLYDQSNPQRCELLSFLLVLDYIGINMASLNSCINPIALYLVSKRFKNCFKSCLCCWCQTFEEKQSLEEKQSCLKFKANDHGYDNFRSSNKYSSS
The series can be described thus: Displacement of 125I-ET1 from rat aortic ring ETB receptor.

The target of series [3] is T3, Endothelin-1 receptor (Homo sapiens, UniProt P25101).
T3 sequence (P25101 whole entry): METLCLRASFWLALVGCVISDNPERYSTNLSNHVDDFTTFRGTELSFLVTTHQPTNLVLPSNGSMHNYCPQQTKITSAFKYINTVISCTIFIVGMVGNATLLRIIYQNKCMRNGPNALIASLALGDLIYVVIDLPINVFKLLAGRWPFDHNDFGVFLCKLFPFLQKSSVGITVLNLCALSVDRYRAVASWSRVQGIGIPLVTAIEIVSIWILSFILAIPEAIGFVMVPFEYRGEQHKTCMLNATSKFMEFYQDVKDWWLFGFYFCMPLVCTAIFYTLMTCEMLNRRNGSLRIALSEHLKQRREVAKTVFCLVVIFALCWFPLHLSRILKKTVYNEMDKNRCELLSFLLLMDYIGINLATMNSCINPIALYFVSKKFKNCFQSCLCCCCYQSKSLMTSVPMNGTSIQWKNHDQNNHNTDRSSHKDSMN
Kind of series: Displacement of 125I-ET1 from human smooth muscle ETA receptor expressed in fall armyworm sf9 cell membranes.

Series [4] addresses T3, Endothelin-1 receptor. Kind of series: Displacement of radioligand from ETA receptor (unknown origin) expressed in fall armyworm sf9 cell membranes.
Series [5] has as its target T4, Endothelin receptor type B (Homo sapiens, UniProt P24530).
T4 sequence (P24530 whole entry): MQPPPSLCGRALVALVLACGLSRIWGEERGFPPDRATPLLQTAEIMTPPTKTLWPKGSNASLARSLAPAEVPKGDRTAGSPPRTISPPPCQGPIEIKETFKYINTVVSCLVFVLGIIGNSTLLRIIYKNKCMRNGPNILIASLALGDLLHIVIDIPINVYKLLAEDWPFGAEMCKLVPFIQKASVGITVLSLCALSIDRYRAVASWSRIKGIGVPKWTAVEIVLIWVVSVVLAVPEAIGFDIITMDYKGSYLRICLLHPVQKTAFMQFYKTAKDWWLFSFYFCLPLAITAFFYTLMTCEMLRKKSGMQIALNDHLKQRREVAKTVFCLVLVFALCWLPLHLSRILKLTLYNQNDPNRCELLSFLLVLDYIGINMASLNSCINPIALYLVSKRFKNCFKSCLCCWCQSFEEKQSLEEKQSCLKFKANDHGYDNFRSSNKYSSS
Kind of series: Antagonist activity at human ETB receptor expressed in CHO cells in presence of ET1. The class given is cell-based.

In series [6] the target is T3, Endothelin-1 receptor. Kind of series: Antagonist activity at human ETA receptor expressed in CHO cells in presence of ET1. The class given is cell-based.
A short description of series [7]: physchem.
Description: Dissociation constant, pKa of the compound
Series [8] deals with T3, Endothelin-1 receptor. The series can be described thus: Antagonist activity at ETA receptor (unknown origin).
The target of series [9] is T2, Endothelin receptor type B. The series can be described thus: Displacement of [125I]-ET1 from ETB receptor in rat cerebellum after 3 hrs by scintillation counting method. Type of series: tissue-based.
Series [10] concerns the target T5, Endothelin-1 receptor (Rattus norvegicus, UniProt P26684).
T5 sequence (P26684 whole entry): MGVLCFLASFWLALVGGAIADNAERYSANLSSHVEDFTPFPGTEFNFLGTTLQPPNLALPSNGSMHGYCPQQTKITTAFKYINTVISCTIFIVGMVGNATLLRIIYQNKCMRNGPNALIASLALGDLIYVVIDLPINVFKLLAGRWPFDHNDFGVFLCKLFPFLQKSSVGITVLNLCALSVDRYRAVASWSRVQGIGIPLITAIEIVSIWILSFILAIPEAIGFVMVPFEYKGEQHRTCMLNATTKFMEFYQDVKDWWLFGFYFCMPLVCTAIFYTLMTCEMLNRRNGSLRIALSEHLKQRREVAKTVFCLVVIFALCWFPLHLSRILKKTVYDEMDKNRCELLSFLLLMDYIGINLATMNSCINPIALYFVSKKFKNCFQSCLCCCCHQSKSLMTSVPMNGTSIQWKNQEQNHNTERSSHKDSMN
Kind of series: Displacement of 125I-ET1 from ETA receptor in rat A7R5 cells. Type of series: cell-based.

Series [11] concerns the target T3, Endothelin-1 receptor. The series can be described thus: Displacement of 125I-ET1 from human placenta cell membrane ETA receptor expressed in Baculovirus-infected insect cells.
Series [12] concerns the target T4, Endothelin receptor type B. Kind of series: Antagonist activity at ETB receptor (unknown origin).
In series [13] the target is T4, Endothelin receptor type B. Kind of series: Displacement of radioligand from ETB receptor in human placenta cell membranes.
Series [14] deals with T3, Endothelin-1 receptor. The series can be described thus: Displacement of 125I-ET1 from ETA receptor (unknown origin) expressed in CHO cells. Type of series: cell-based.
The target in series [15] is T3, Endothelin-1 receptor. The series can be described thus: Antagonist activity at ETA receptor (unknown origin) in presence of ET1.
In series [16] the target is T4, Endothelin receptor type B. The series can be described thus: Antagonist activity at ETB receptor (unknown origin) in presence of ET1.
Series [17] addresses T3, Endothelin-1 receptor. The series can be described thus: Displacement of [125I]-ET-1 from human ETA receptor expressed in CHO cell membranes after 2 hrs by scintillation counting.
Series [18] can be described thus: Oral bioavailability in dog. The class given is ADME, organism-based, Canis lupus familiaris. The settings on record: in vivo.
Series [19] can be described thus: Oral bioavailability in rat at 15 mg/kg. The class given is ADME, organism-based. As to conditions: in vivo.
Series [20] can be described thus: Oral bioavailability in dog at 15 mg/kg. The class given is ADME, organism-based, Canis lupus familiaris. As to conditions: in vivo.

In the case of `Cc1ccc(-c2c(NS(=O)(=O)c3ccc(C(C)(C)CO)cc3)ncnc2OCCOc2ncc(Br)cn2)cc1`, in series [1], the half-inhibitory concentration (IC50) turned out to be 41 nM.
As for `COc1cccc(Oc2c(NS(=O)(=O)c3ccc(C(C)(C)C)cc3)ncnc2OCCO)c1`, the IC50 in series [2] came to 1000 nM; in [3] it was 220 nM.
Regarding `COc1ccc(-c2nc(NS(=O)(=O)c3ccc(C(C)(C)C)cc3)c(Oc3ccccc3OC)c(OC[C@H](O)CO)n2)cc1`, the IC50 in [4] amounted to 6800 nM; in [5] it was 69 nM.
Consider `CCCNS(=O)(=O)Nc1ncnc(OCCOc2ncc(Br)cn2)c1-c1ccc(Br)cc1`, for which the 50% inhibitory concentration (IC50) in [6] is 3.4 nM. Further, the pKa in series [7] came out at 6.2.
Turning to `COc1ccccc1Oc1c(NS(=O)(=O)CCc2ccccc2)nc(-c2ncccn2)nc1OCCO`, the midpoint of inhibition in series [8], the IC50, lay at 25 nM.
As to `Cc1noc(NS(=O)(=O)c2ccccc2-c2ccc(-c3ncco3)cc2)c1C`, in [9], affinity was put at a Ki of 1900 nM.
Turning to `COc1ccccc1Oc1c(NS(=O)(=O)c2ccc(C(C)(C)C)cc2)nc(N2CCOCC2)nc1OCCC(=O)Nc1ccccc1C(C)C`, the IC50 in [10] is 63 nM; in series [1], 0.86 nM.
In the case of `COc1ccccc1Oc1c(NS(=O)(=O)c2ccc(C(C)C)cc2)nc(C(F)(F)F)nc1OCCO`, the IC50 stood at 50 nM in series [11], 26 nM in [8] and 914 nM in series [12].
Consider `COc1ccccc1Oc1c(NS(=O)(=O)c2ccc(C)cn2)nc(-c2ccncc2)nc1OC` [AVOSENTAN], for which the IC50 turned out to be 600 nM in [13], 1.4 nM in series [14], 3.1 nM in series [15] and 1200 nM in series [16].
Molecule `CCc1cc(C2=C(C(=O)O)N(c3ccccc3C(F)(F)F)S(=O)(=O)c3ccccc32)cc2c1OCO2` [FANDOSENTAN] came in with an IC50 in [17] of 0.5 nM. The bioavailability in series [18] is 100%.
Consider `Cc1cc2c(cc1CC(=O)c1sccc1S(=O)(=O)Nc1onc(C)c1Cl)OCO2` [SITAXENTAN], for which the bioavailability in series [19] and in series [20] was 60 to 100% each time.
